# Test results from ChEMBL document CHEMBL3879908, “Pyrrolidinone carboxamide derivatives” (2014).
# Biological target: T1, Chemerin-like receptor 1 (Homo sapiens, UniProt Q99788)
# T1 sequence (Q99788 whole entry): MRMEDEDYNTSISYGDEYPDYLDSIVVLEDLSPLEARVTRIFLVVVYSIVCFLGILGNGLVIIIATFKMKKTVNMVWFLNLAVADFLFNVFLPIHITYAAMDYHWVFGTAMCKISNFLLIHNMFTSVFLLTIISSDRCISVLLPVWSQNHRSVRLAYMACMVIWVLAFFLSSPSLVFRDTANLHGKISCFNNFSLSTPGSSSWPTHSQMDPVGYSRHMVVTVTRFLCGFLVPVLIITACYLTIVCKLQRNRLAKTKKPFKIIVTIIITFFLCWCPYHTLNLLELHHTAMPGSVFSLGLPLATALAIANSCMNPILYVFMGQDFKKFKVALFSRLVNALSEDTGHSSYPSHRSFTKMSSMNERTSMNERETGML
# Test: Displacement of [125I]-chemerin from ChemR23 (unknown origin) transfected in mouse BaF3 cells after 3 hrs by scintillation counting method
# Type: cell-based
row,IC50 [nM],SMILES
1,≤ 30,CCCN(C)C[C@@]1(C(=O)Nc2cc(C(F)(F)F)cc(C(F)(F)F)c2)CN(c2c(C)cccc2C)C(=O)[C@H]1C
2,≤ 30,Cc1cccc(C)c1N1C[C@@](CN(C)CC(C)(C)C)(C(=O)Nc2cc(C(F)(F)F)cc(C(F)(F)F)c2)[C@H](C)C1=O
3,30 to 300,Cc1cccc(CN2CCOCC2)c1N1CC(C(=O)Nc2cc(C(F)(F)F)cc(C(F)(F)F)c2)(C(C)C)CC1=O (configuration not stated)
4,30 to 300,Cc1cccc(C)c1N1C[C@@](CN2CCC2)(C(=O)Nc2cc(C#N)cc(C(F)(F)F)c2)[C@H](C)C1=O
5,≤ 30,Cc1cccc(C)c1N1CC2(C(=O)Nc3cc(C(F)(F)F)cc(C(F)(F)F)c3)CC=CCC2C1=O (configuration not stated)
6,30 to 300,Cc1cccc(F)c1N1CC(C(=O)Nc2cc(C(F)(F)F)cc(C(F)(F)F)c2)(C(C)C)CC1=O (configuration not stated)
7,≤ 30,Cc1cccc(C)c1N1CC2(C(=O)Nc3cc(C(F)(F)F)cc(C(F)(F)F)c3)CCCC2C1=O (configuration not stated)
8,300 to 6000,CCc1cccc(NC(=O)C2CC(=O)N(c3c(C)cccc3C)C2)c1 (configuration not stated)
9,≤ 30,CCN(CC(C)C)C[C@@]1(C(=O)Nc2cc(C(F)(F)F)cc(C(F)(F)F)c2)CN(c2c(C)cccc2C)C(=O)[C@H]1C
10,300 to 6000,COc1ccccc1N1CC(C(=O)Nc2cc(C3CC3)cc(C(F)(F)F)c2)(C(C)C)CC1=O (configuration not stated)
11,≤ 30,CCN(CCF)C[C@@]1(C(=O)Nc2cc(C(F)(F)F)cc(C(F)(F)F)c2)CN(c2c(C)cccc2C)C(=O)[C@H]1C
12,≤ 30,Cc1cc(C)n(C2(C(=O)Nc3cc(C(F)(F)F)cc(C(F)(F)F)c3)CC(=O)N(c3c(C)cccc3C)C2)n1 (configuration not stated)
13,≤ 30,Cc1cccc(C)c1N1C[C@@](CN(C)CC(C)C)(C(=O)Nc2cc(OC(C)C)cc(C(F)(F)F)c2)[C@H](C)C1=O
14,30 to 300,CC[C@@]1(C(=O)Nc2cc(N(C)C)cc(C(F)(F)F)c2)CN(c2c(C)cccc2C)C(=O)[C@H]1C
15,≤ 30,CCN(C[C@@]1(C(=O)Nc2cc(C#N)cc(C(F)(F)F)c2)CN(c2c(C)cccc2C)C(=O)[C@H]1C)C(C)C
16,30 to 300,CC[C@]1(C(=O)Nc2cc(Cl)cc(C(F)(F)F)c2)CC(=O)N(c2c(C)cccc2C)C1
17,30 to 300,Cc1cccc(C)c1N1C[C@@](CN2CCC(F)(F)C2)(C(=O)Nc2cc(C(F)(F)F)cc(C(F)(F)F)c2)[C@H](C)C1=O
18,30 to 300,Cc1cccc(C)c1N1CC(C(=O)Nc2cc(N3CCCC3)cc(C(F)(F)F)c2)CC1=O (configuration not stated)
19,300 to 6000,Cc1cccc(C)c1N1CC(C(=O)Nc2cc(C(F)(F)F)cc(C(F)(F)F)c2)(C2=CCNCC2)CC1=O (configuration not stated)
20,≤ 30,CC[C@]1(C(=O)Nc2cc(C(F)(F)F)cc(C(F)(F)F)c2)CC(=O)N(c2c(C)cccc2C)C1
21,≤ 30,Cc1cccc(C)c1N1C[C@@](CN(C)CC(C)C)(C(=O)Nc2cc(C(F)F)cc(C(F)(F)F)c2)[C@H](C)C1=O
22,≤ 30,CCN(CC1CC1)C[C@@]1(C(=O)Nc2cc(C(F)(F)F)cc(C(F)(F)F)c2)CN(c2c(C)cccc2C)C(=O)[C@H]1C
23,≤ 30,Cc1cccc(C)c1N1C[C@@](CN(C)C2CCCCC2)(C(=O)Nc2cc(C(F)(F)F)cc(C(F)(F)F)c2)[C@H](C)C1=O
24,≤ 30,Cc1cccc(C)c1N1C[C@](C(=O)Nc2cc(C(F)(F)F)cc(C(F)(F)F)c2)(N(C)C)CC1=O
25,≤ 30,Cc1cccc(C)c1N1C[C@@](CN2CCCC2)(C(=O)Nc2cc(C#N)cc(C(F)(F)F)c2)[C@H](C)C1=O
26,≤ 30,Cc1cccc(C)c1N1C[C@@](CN(C)CC(F)F)(C(=O)Nc2cc(C(F)(F)F)cc(C(F)(F)F)c2)[C@H](C)C1=O

row,IC50 [nM],SMILES
1,30 to 300,Cc1cccc(C)c1N1CC(C(=O)Nc2cc(C(F)(F)F)cc(C(F)(F)F)c2)(C2=CCN(C)CC2)CC1=O (configuration not stated)
2,30 to 300,Cc1cccc(C)c1N1C[C@]2(C(=O)Nc3cc(C(F)(F)F)cc(C(F)(F)F)c3)OCC[C@@H]2C1=O
3,≤ 30,Cc1cccc(C)c1N1C[C@]2(C(=O)Nc3cc(C(F)(F)F)cc(C(F)(F)F)c3)CC[C@@H]2C1=O
4,30 to 300,Cc1cccc(C)c1N1C[C@@](CN2CCN(CC(F)(F)F)CC2)(C(=O)Nc2cc(F)cc(C(F)(F)F)c2)[C@H](C)C1=O
5,300 to 6000,Cc1cccc(C)c1N1CC2(C(=O)Nc3cc(C(F)(F)F)cc(C(F)(F)F)c3)COCCC2C1=O (configuration not stated)
6,≤ 30,Cc1cccc(C)c1N1CC(C(=O)Nc2cc(C(F)(F)F)cc(C(F)(F)F)c2)CC1=O (configuration not stated)
7,≤ 30,CC[C@@]1(C(=O)Nc2cc(C3CC3)cc(C(F)(F)F)c2)CN(c2c(C)cccc2C)C(=O)[C@H]1C
8,300 to 6000,CC[C@@]1(C(=O)Nc2cc(CN3CCCC3)cc(C(F)(F)F)c2)CN(c2c(C)cccc2C)C(=O)[C@H]1C
9,30 to 300,CC(C)C1(C(=O)Nc2cc(C(F)(F)F)cc(C(F)(F)F)c2)CC(=O)N(c2ccccc2C2CC2)C1 (configuration not stated)
10,≤ 30,CC[C@@H]1C(=O)N(c2c(C)cccc2C)C[C@@]1(C)C(=O)Nc1cc(C(F)(F)F)cc(C(F)(F)F)c1
11,300 to 6000,O=C(Nc1cc(C(F)(F)F)cc(C(F)(F)F)c1)C1CC(=O)N(c2ccccc2)C1 (configuration not stated)
12,300 to 6000,CCc1cccc(C)c1N1CC(C(=O)Nc2cccc(C(F)(F)F)c2)CC1=O (configuration not stated)
13,≤ 30,CCN(C)C[C@@]1(C(=O)Nc2cc(C#N)cc(C(F)(F)F)c2)CN(c2c(C)cccc2C)C(=O)[C@H]1C
14,≤ 30,Cc1cccc(C)c1N1CC(CCC(C)C)(C(=O)Nc2cc(C(F)(F)F)cc(C(F)(F)F)c2)CC1=O (configuration not stated)
15,30 to 300,C=CCc1ccccc1N1CC(C(=O)Nc2cc(C(F)(F)F)cc(C(F)(F)F)c2)(C(C)C)CC1=O (configuration not stated)
16,≤ 30,CCN(CC(F)(F)F)C[C@@]1(C(=O)Nc2cc(C#N)cc(C(F)(F)F)c2)CN(c2c(C)cccc2C)C(=O)[C@H]1C
17,≤ 30,CO[C@H]1CC2C(=O)N(c3c(C)cccc3C)CC2(C(=O)Nc2cc(C(F)(F)F)cc(C(F)(F)F)c2)C1 (some centres not stated)
18,300 to 6000,Cc1cccc(C)c1N1CC(C(=O)Nc2ccc(Cl)c(C(F)(F)F)c2)CC1=O (configuration not stated)
19,300 to 6000,COCCOc1cc(NC(=O)C2(C(C)C)CC(=O)N(c3c(C)cccc3Br)C2)cc(C(F)(F)F)c1 (configuration not stated)
20,300 to 6000,Cc1cccc(C)c1N1CC(C(=O)Nc2cccc(C(F)(F)F)c2)CC1=O (configuration not stated)
21,300 to 6000,Cc1cccc(C)c1N1CC2(C(=O)Nc3cc(C(F)(F)F)cc(C(F)(F)F)c3)CC2C1=O (configuration not stated)
22,30 to 300,C/C=C/c1ccccc1N1CC(C(=O)Nc2cc(C(F)(F)F)cc(C(F)(F)F)c2)(C(C)C)CC1=O (configuration not stated)
23,≤ 30,Cc1cccc(C)c1N1CC(C(=O)Nc2cc(C(F)(F)F)cc(C(F)(F)F)c2)(C2CCOCC2)CC1=O (configuration not stated)
24,300 to 6000,Cc1cccc(C)c1N1C[C@]2(C(=O)Nc3cc(C(F)(F)F)cc(C(F)(F)F)c3)CC=CC[C@@H]2C1=O
25,≤ 30,Cc1cccc(C)c1N1C[C@@](CN(C)C(C)C)(C(=O)Nc2cc(C#N)cc(C(F)(F)F)c2)[C@H](C)C1=O
26,≤ 30,Cc1cccc(C)c1N1CC(CC2CCN(Cc3ccccc3)C2)(C(=O)Nc2cc(C(F)(F)F)cc(C(F)(F)F)c2)CC1=O (configuration not stated)

row,IC50 [nM],SMILES
1,30 to 300,CC[C@@]1(C(=O)Nc2cc(Cl)cc(C#N)c2)CN(c2c(C)cccc2C)C(=O)[C@H]1C
2,30 to 300,COC(=O)c1cc(NC(=O)C2CC(=O)N(c3c(C)cccc3C)C2)cc(C(F)(F)F)c1 (configuration not stated)
3,30 to 300,Cc1cccc(C)c1N1CC(C(=O)Nc2cc(C(F)(F)F)cc(C(F)(F)F)c2)(C(C)O)CC1=O (configuration not stated)
4,30 to 300,Cc1cccc(CO)c1N1CC(C(=O)Nc2cc(C(F)(F)F)cc(C(F)(F)F)c2)(C(C)C)CC1=O (configuration not stated)
5,30 to 300,Cc1ccccc1N1CC(C(=O)Nc2cc(C(F)(F)F)cc(C(F)(F)F)c2)CC1=O (configuration not stated)
6,≤ 30,Cc1cccc(C)c1N1CC(C)(C(=O)Nc2cc(C(F)(F)F)cc(C(F)(F)F)c2)CC1=O (configuration not stated)
7,30 to 300,Cc1cccc(C)c1N1C[C@@](CN2CCC2)(C(=O)Nc2cc(C(F)(F)F)cc(C(F)(F)F)c2)[C@H](C)C1=O
8,≤ 30,Cc1cccc(C)c1N1C[C@@](C)(C(=O)Nc2cc(Cl)cc(Cl)c2)[C@H](C)C1=O
9,300 to 6000,Cc1cccc(C)c1N1CC(C(=O)Nc2ccc(Cl)c(Cl)c2)CC1=O (configuration not stated)
10,300 to 6000,Cc1cccc(C)c1N1CC(C(=O)Nc2cc(C(F)(F)F)cc(C(F)(F)F)c2)(C2CCNC2)CC1=O (configuration not stated)
11,≤ 30,CCCCC1(C(=O)Nc2cc(C(F)(F)F)cc(C(F)(F)F)c2)CC(=O)N(c2c(C)cccc2C)C1 (configuration not stated)
12,300 to 6000,CCc1cccc(C)c1N1CC(C(=O)Nc2ccc(C(F)(F)F)cc2)CC1=O (configuration not stated)
13,300 to 6000,Cc1cccc(F)c1N1CC(C(=O)Nc2cccc(Cl)c2)CC1=O (configuration not stated)
14,30 to 300,COC1CCN(C[C@@]2(C(=O)Nc3cc(C#N)cc(C(F)(F)F)c3)CN(c3c(C)cccc3C)C(=O)[C@H]2C)CC1
15,≤ 30,Cc1cccc(C)c1N1CC2(C(=O)Nc3cc(C(F)(F)F)cc(C(F)(F)F)c3)CC(F)(F)CC2C1=O (configuration not stated)
16,≤ 30,CNC1(C(=O)Nc2cc(C(F)(F)F)cc(C(F)(F)F)c2)CC(=O)N(c2c(C)cccc2C)C1 (configuration not stated)
17,≤ 30,CCC1(C(=O)Nc2cc(C(F)(F)F)cc(C(F)(F)F)c2)CC(=O)N(c2c(C)cccc2C)C1 (configuration not stated)
18,30 to 300,Cc1cccc(N2CC(C(=O)Nc3cc(C(F)(F)F)cc(C(F)(F)F)c3)CC2=O)c1C (configuration not stated)
19,30 to 300,Cc1cccc(C)c1N1C[C@@](CN(C)CC2CC2)(C(=O)Nc2cc(C#N)cc(C(F)(F)F)c2)[C@H](C)C1=O
20,30 to 300,CC[C@@]1(C(=O)Nc2cc(F)cc(C(F)(F)F)c2)CN(c2c(C)cccc2C)C(=O)[C@H]1C
21,30 to 300,Cc1cccc(C)c1N1C[C@](C(=O)Nc2cc(NC(C)C)cc(C(F)(F)F)c2)(C(C)C)[C@H](C)C1=O
22,300 to 6000,Cc1cccc(CCO)c1N1CC(C(=O)Nc2cc(C(F)(F)F)cc(C(F)(F)F)c2)(C(C)C)CC1=O (configuration not stated)
23,≤ 30,Cc1ccccc1N1CC(C)(C(=O)Nc2cc(C(F)(F)F)cc(C(F)(F)F)c2)C(C)C1=O (configuration not stated)
24,30 to 300,Cc1cccc(C)c1N1CC2(C(=O)Nc3cc(C(F)(F)F)cc(C(F)(F)F)c3)CC(O)CC2C1=O (configuration not stated)
25,≤ 30,Cc1cccc(C)c1N1C[C@@](CN(C)C)(C(=O)Nc2cc(C(F)(F)F)cc(C(F)(F)F)c2)[C@H](C)C1=O
